Laboratory results from patent US10844077B2, “Thiazolyl-containing compounds for treating proliferative diseases” (Dana-Farber Cancer Institute, Inc., priority 2014, dated 2020).
Where “and” joins values, the source holds several entries; their conditions need not be identical. Identical values can stand only once.

How the values were obtained:
CASK = CASK (Homo sapiens (Human), UniProt O14936); assay: KINATIV assay; assay type: cell-based; conditions: 1 μM, 90 minutes, BCWM.1 cells
How it was run: (§1)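 Kinase occupancy was profiled in native cell lysates, which were labeled with an ATP-biotin probe. Bound kinases were identified and quantitated using ACTIVX.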

RSK3 = RSK3 (Homo sapiens (Human), UniProt Q15349); assay: KINATIV assay; assay type: cell-based; conditions: 1 μM, 90 minutes, BCWM.1 cells
How it was run: as §1

PI4KB = PI4KB (Homo sapiens (Human), UniProt Q9UBF8); assay: KINATIV assay; assay type: cell-based; conditions: 1 μM, 90 minutes, BCWM.1 cells
How it was run: as §1

SRPK1 = SRPK1 (Homo sapiens (Human), UniProt Q96SB4); assay: KINATIV assay; assay type: cell-based; conditions: 1 μM, 90 minutes, BCWM.1 cells
How it was run: as §1

PKD1, PKD2 = assay: KINATIV assay; assay type: cell-based; conditions: 1 μM, 90 minutes, BCWM.1 cells
How it was run: as §1

IRE1 = IRE1 (Homo sapiens (Human), UniProt O75460); assay: KINATIV assay; assay type: cell-based; conditions: 1 μM, 90 minutes, BCWM.1 cells
How it was run: as §1

MARK2 = MARK2 (Homo sapiens (Human), UniProt Q7KZI7); assay: KINATIV assay; assay type: cell-based; conditions: 1 μM, 90 minutes, BCWM.1 cells
How it was run: as §1

MSK1 domain1 = MSK1 domain1 (Homo sapiens (Human), UniProt O75582); assay: KINATIV assay; assay type: cell-based; conditions: 1 μM, 90 minutes, BCWM.1 cells
How it was run: as §1

TAK1 = TAK1 (Homo sapiens (Human), UniProt O43318); assay: KINATIV assay; assay type: cell-based; conditions: 1 μM, 90 minutes, BCWM.1 cells
How it was run: as §1

MST2 = MST2 (Homo sapiens (Human), UniProt Q13188); assay: KINATIV assay; assay type: cell-based; conditions: 1 μM, 90 minutes, BCWM.1 cells
How it was run: as §1

ABL, ARG = assay: KINATIV assay; assay type: cell-based; conditions: 1 μM, 90 minutes, BCWM.1 cells
How it was run: as §1

Erk5 = Erk5 (Homo sapiens (Human), UniProt Q13164); assay: KINATIV assay; assay type: cell-based; conditions: 1 μM, 90 minutes, BCWM.1 cells
How it was run: as §1

IRAK1 = IRAK1 (Homo sapiens (Human), UniProt P51617); assay: KINATIV assay; assay type: cell-based; conditions: 1 μM, 90 minutes, BCWM.1 cells
How it was run: as §1

AMPKa1 = AMPKa1 (Homo sapiens (Human), UniProt Q13131); assay: KINATIV assay; assay type: cell-based; conditions: 1 μM, 90 minutes, BCWM.1 cells
How it was run: as §1

TAO2 = TAO2 (Homo sapiens (Human), UniProt Q9UL54); assay: KINATIV assay; assay type: cell-based; conditions: 1 μM, 90 minutes, BCWM.1 cells
How it was run: as §1

EphB1 = EphB1 (Homo sapiens (Human), UniProt P54762); assay: KINATIV assay; assay type: cell-based; conditions: 1 μM, 90 minutes, BCWM.1 cells
How it was run: as §1

MAP3K3 = MAP3K3 (Homo sapiens (Human), UniProt Q99759); assay: KINATIV assay; assay type: cell-based; conditions: 1 μM, 90 minutes, BCWM.1 cells
How it was run: as §1

LKB1 = LKB1 (Homo sapiens (Human), UniProt Q15831); assay: KINATIV assay; assay type: cell-based; conditions: 1 μM, 90 minutes, BCWM.1 cells
How it was run: as §1

PIK3CB = PIK3CB (Homo sapiens (Human), UniProt P42338); assay: KINATIV assay; assay type: cell-based; conditions: 1 μM, 90 minutes, BCWM.1 cells
How it was run: as §1

Wnk1, Wnk2, Wnk3 = assay: KINATIV assay; assay type: cell-based; conditions: 1 μM, 90 minutes, BCWM.1 cells
How it was run: as §1

[1] = system: ZC1/HGK, ZC2/TNIK, ZC3/MINK; assay: KINATIV assay; assay type: cell-based; conditions: 1 μM, 90 minutes, BCWM.1 cells
How it was run: as §1

GSK3A = GSK3A (Homo sapiens (Human), UniProt P49840); assay: KINATIV assay; assay type: cell-based; conditions: 1 μM, 90 minutes, BCWM.1 cells
How it was run: as §1

MARK3, MARK4 = assay: KINATIV assay; assay type: cell-based; conditions: 1 μM, 90 minutes, BCWM.1 cells
How it was run: as §1

eEF2K = eEF2K (Homo sapiens (Human), UniProt O00418); assay: KINATIV assay; assay type: cell-based; conditions: 1 μM, 90 minutes, BCWM.1 cells
How it was run: as §1

PYK2 = PYK2 (Homo sapiens (Human), UniProt Q14289); assay: KINATIV assay; assay type: cell-based; conditions: 1 μM, 90 minutes, BCWM.1 cells
How it was run: as §1

KSR1, KSR2 = assay: KINATIV assay; assay type: cell-based; conditions: 1 μM, 90 minutes, BCWM.1 cells
How it was run: as §1

MAP3K2, MAP3K3 = assay: KINATIV assay; assay type: cell-based; conditions: 1 μM, 90 minutes, BCWM.1 cells
How it was run: as §1

MARK2, MARK3 = assay: KINATIV assay; assay type: cell-based; conditions: 1 μM, 90 minutes, BCWM.1 cells
How it was run: as §1

p70S6Kb = p70S6Kb (Homo sapiens (Human), UniProt Q9UBS0); assay: KINATIV assay; assay type: cell-based; conditions: 1 μM, 90 minutes, BCWM.1 cells
How it was run: as §1

ITPK1 = ITPK1 (Homo sapiens (Human), UniProt Q13572); assay: KINATIV assay; assay type: cell-based; conditions: 1 μM, 90 minutes, BCWM.1 cells
How it was run: as §1

TLK2 = TLK2 (Homo sapiens (Human), UniProt Q86UE8); assay: KINATIV assay; assay type: cell-based; conditions: 1 μM, 90 minutes, BCWM.1 cells
How it was run: as §1

PCTAIRE1, PCTAIRE3 = assay: KINATIV assay; assay type: cell-based; conditions: 1 μM, 90 minutes, BCWM.1 cells
Source text: (§2) The cells were harvested and lysed.

PCTAIRE2, PCTAIRE3 = assay: KINATIV assay; assay type: cell-based; conditions: 1 μM, 90 minutes, BCWM.1 cells
Source text: as §2

PCTAIRE1 = PCTAIRE1 (Homo sapiens (Human), UniProt Q00536)
Experimental: (§3) The cells were harvested and lysed. The lysates were directly labeled with an ATP-biotin probe. Bound kinases were identified and quantitated by ACTIVX as described in Patricelli et al., Biochemistry, 2007, 46(2): 350-358. The compounds were tested in duplicates against duplicate or quadruplicate control samples.

PRP4 = PRP4 (Homo sapiens (Human), UniProt Q13523)
Experimental: as §3

PRPK = PRPK (Homo sapiens (Human), UniProt Q96S44)
Experimental: as §3

PCTAIRE2 = PCTAIRE2 (Homo sapiens (Human), UniProt Q00537)
Experimental: as §3

MAPKAPK3 = MAPKAPK3 (Homo sapiens (Human), UniProt Q16644)
Experimental: as §3

Chain of PRP4 (Q13523 whole entry, looked up): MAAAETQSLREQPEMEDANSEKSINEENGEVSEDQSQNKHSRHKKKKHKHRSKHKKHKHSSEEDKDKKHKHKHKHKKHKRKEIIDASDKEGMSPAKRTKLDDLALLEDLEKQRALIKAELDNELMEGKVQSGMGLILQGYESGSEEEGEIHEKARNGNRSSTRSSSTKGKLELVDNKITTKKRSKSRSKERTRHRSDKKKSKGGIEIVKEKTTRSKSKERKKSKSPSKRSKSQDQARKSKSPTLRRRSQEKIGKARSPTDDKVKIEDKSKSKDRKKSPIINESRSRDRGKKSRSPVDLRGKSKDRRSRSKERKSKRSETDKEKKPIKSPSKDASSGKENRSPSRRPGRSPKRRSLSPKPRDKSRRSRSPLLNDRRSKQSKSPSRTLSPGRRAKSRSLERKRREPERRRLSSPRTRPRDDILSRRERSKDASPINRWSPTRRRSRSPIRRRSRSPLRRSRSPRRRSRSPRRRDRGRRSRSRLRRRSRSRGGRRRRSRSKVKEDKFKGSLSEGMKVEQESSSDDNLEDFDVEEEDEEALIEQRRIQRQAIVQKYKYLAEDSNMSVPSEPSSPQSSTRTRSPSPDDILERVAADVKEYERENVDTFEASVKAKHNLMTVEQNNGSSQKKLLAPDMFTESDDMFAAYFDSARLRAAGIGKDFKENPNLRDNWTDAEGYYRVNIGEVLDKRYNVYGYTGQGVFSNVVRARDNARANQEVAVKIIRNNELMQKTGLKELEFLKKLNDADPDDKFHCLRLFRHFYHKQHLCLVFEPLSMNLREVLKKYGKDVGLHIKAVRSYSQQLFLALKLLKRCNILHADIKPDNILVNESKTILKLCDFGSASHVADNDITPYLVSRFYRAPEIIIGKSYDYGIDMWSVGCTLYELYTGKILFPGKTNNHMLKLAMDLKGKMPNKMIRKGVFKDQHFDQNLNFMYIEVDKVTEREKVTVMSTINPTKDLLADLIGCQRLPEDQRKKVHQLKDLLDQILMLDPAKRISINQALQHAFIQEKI
Chain of eEF2K (O00418 whole entry): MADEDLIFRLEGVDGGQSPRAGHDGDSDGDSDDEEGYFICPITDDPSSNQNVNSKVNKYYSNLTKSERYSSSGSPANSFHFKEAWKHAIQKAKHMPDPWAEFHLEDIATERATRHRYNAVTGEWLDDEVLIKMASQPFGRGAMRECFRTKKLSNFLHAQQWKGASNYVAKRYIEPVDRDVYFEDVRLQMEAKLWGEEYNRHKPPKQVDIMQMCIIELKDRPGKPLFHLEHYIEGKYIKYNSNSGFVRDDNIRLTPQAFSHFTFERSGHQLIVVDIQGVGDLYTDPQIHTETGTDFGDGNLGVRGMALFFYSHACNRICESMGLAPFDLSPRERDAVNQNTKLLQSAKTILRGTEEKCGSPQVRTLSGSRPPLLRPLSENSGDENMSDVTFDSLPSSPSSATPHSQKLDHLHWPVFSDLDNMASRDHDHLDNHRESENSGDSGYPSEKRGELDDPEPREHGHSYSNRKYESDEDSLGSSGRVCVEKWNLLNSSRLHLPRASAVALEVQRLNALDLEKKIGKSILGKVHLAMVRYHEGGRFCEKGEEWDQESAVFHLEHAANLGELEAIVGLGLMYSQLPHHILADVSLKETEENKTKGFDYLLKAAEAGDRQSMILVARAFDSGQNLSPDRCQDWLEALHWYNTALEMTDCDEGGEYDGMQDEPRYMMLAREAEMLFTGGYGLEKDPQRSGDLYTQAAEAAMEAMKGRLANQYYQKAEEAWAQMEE
Chain of PIK3CB (P42338 whole entry): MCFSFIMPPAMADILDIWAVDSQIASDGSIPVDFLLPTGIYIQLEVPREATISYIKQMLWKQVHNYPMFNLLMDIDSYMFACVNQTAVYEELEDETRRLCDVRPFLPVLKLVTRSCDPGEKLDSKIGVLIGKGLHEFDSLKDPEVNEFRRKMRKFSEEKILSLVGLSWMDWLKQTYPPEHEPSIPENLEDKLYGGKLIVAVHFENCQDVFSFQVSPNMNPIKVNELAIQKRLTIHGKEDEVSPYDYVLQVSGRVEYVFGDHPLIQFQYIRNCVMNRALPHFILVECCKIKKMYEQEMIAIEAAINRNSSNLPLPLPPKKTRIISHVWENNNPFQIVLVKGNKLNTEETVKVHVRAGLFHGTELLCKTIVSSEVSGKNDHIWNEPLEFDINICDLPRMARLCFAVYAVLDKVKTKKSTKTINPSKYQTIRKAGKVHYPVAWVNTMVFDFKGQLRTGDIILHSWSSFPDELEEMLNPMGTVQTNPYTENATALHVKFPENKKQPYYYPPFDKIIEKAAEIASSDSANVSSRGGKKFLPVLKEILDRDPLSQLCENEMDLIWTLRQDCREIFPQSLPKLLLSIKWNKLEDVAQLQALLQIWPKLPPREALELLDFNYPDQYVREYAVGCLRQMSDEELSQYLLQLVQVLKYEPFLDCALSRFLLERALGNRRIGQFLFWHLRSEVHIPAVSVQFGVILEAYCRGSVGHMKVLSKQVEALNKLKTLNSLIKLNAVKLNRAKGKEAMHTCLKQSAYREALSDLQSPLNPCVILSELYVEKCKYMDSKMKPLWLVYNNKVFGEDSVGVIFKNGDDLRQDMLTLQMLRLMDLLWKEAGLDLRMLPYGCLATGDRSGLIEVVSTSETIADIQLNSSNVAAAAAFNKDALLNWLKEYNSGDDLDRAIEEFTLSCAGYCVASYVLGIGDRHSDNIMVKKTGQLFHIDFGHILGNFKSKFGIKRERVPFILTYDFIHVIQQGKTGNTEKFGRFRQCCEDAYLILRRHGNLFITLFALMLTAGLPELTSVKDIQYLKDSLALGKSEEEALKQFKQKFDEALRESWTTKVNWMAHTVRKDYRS
Chain of PIK3CB (P27986 whole entry partner): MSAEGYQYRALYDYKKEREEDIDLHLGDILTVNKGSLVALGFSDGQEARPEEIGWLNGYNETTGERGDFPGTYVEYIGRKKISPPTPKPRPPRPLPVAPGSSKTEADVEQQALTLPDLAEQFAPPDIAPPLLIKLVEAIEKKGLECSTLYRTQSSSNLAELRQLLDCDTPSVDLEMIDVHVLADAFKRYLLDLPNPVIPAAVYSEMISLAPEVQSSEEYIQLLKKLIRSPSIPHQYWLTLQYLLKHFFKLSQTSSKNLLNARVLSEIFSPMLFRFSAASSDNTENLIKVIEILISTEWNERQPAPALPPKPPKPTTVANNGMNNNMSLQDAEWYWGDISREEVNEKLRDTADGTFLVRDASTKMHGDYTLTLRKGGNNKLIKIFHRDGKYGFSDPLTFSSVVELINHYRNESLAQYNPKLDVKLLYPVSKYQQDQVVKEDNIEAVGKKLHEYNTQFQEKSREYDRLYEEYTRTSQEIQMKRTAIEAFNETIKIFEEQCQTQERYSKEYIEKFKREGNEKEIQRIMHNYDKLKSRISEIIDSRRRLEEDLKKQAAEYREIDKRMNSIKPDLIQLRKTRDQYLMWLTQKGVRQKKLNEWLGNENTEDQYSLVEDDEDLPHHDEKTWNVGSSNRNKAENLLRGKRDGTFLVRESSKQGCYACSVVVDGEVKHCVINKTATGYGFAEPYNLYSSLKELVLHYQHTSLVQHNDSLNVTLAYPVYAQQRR
Chain of MARK2 (Q7KZI7 whole entry): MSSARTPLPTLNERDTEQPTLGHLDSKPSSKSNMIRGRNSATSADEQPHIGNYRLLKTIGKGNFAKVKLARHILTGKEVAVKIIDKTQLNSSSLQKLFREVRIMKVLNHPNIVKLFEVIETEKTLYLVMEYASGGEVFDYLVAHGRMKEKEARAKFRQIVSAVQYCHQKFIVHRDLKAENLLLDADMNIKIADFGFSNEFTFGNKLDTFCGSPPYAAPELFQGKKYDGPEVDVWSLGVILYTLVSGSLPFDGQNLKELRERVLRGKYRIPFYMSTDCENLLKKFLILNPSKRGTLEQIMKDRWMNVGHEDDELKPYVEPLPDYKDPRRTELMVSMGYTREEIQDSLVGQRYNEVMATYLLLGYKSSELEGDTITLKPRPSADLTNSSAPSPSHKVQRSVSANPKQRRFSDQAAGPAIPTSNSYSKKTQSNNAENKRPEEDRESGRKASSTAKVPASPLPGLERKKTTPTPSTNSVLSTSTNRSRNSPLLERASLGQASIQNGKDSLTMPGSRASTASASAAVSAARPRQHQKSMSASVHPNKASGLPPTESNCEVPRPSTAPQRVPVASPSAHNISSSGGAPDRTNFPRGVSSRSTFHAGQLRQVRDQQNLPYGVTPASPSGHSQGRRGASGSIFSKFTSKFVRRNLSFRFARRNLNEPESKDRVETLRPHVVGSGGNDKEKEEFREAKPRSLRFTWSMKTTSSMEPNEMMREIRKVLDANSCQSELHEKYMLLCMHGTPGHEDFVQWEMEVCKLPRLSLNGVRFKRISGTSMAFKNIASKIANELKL
Chain of PRPK (Q96S44 whole entry, looked up): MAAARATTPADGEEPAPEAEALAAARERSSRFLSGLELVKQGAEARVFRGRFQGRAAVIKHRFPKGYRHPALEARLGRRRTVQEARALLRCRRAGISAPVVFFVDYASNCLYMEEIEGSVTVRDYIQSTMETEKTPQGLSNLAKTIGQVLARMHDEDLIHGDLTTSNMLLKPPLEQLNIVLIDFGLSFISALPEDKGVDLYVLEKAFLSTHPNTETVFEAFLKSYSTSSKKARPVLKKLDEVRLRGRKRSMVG
Chain of GSK3A (P49840 whole entry): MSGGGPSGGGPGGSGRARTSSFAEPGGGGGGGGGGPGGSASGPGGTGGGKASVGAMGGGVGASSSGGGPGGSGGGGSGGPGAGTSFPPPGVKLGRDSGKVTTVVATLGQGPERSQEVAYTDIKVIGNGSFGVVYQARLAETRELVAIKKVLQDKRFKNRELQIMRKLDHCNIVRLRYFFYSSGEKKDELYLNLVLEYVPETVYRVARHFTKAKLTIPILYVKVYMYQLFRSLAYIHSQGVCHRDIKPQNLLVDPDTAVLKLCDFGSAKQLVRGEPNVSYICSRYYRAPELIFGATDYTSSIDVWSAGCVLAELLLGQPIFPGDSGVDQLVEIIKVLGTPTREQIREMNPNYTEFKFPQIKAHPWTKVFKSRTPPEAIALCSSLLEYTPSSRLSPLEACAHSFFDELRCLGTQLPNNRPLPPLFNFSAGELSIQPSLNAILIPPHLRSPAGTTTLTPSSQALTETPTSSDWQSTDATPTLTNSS

SMILES | % change of MS signal compared to control sample (CASK) [%] | % change of MS signal compared to control sample (RSK3) [%] | % change of MS signal compared to control sample (PI4KB) | % change of MS signal compared to control sample (SRPK1) [%] | % change of MS signal compared to control sample (PKD1, PKD2) [%] | % change of MS signal compared to control sample (IRE1) [%] | % change of MS signal compared to control sample (MARK2) [%] | % change of MS signal compared to control sample (MSK1 domain1) [%] | % change of MS signal compared to control sample (TAK1) [%] | % change of MS signal compared to control sample (MST2) [%] | % change of MS signal compared to control sample (ABL, ARG) | % change of MS signal compared to control sample (Erk5) [%] | % change of MS signal compared to control sample (IRAK1) [%] | % change of MS signal compared to control sample (AMPKa1) [%] | % change of MS signal compared to control sample (TAO2) [%] | % change of MS signal compared to control sample (EphB1) [%] | % change of MS signal compared to control sample (MAP3K3) [%] | % change of MS signal compared to control sample (LKB1) [%] | % change of MS signal compared to control sample (PIK3CB) [%] | % change of MS signal compared to control sample (Wnk1, Wnk2, Wnk3) [%] | other results
C=CC(=O)N1CCCCC(Nc2nccc(Nc3ncc(C(=O)Nc4c(C)cccc4C)s3)n2)C1 (centres unmarked) [Example I-7] | 37.7 | 12.6 | 36.0% and 35.3% | 1.2 | −8.3 | −15.7 | 7.7 | −40.5 | 14.5 | 6.5 | >90% and >97% | −13.8 | 19.0 | 2.7 | −18.0 | >97 | 42.8 | 1.2 | −42.6 | 10.4 | % change of MS signal compared to control sample [1]: 6.2%; % change of MS signal compared to control sample (GSK3A): −11.3%; % change of MS signal compared to control sample (MARK3, MARK4): 20.7%; % change of MS signal compared to control sample (eEF2K): 4.9%; % change of MS signal compared to control sample (PYK2): 16.6% and 28.4%; % change of MS signal compared to control sample (KSR1, KSR2): −10.1%; % change of MS signal compared to control sample (MAP3K2, MAP3K3): 15.6%; % change of MS signal compared to control sample (MARK2, MARK3): −11.0%; % change of MS signal compared to control sample (p70S6Kb): −42.7%; % change of MS signal compared to control sample (ITPK1): −17.5%; % change of MS signal compared to control sample (TLK2): 7.3%; % change of MS signal compared to control sample (PCTAIRE1, PCTAIRE3): 14.9%; % change of MS signal compared to control sample (PCTAIRE2, PCTAIRE3): 27.0%; % change of MS signal compared to control sample (PCTAIRE1): 38.2%; % change of MS signal compared to control sample (PRP4): −4.1%; % change of MS signal compared to control sample (PRPK): −3.8%; % change of MS signal compared to control sample (PCTAIRE2): 9.9%; % change of MS signal compared to control sample (MAPKAPK3): 0.9%
C=CC(=O)N1CC[C@@H](Nc2nccc(Nc3ncc(C(=O)Nc4c(C)cccc4C)s3)n2)C1 [Example I-4] | 23.2 | 16.8 | 20.0% and 16.7% | −2.1 | −4.7 | −44.3 | 3.6 | −15.8 | 27.8 | 12.3 | >90% and 91.7% | −9.0 | 20.3 | 10.1 | −7.0 | >97 | −0.7 | −4.5 | −61.3 | 17.5 | % change of MS signal compared to control sample [1]: 3.3%; % change of MS signal compared to control sample (GSK3A): −10.5%; % change of MS signal compared to control sample (MARK3, MARK4): 19.1%; % change of MS signal compared to control sample (eEF2K): 0.3%; % change of MS signal compared to control sample (PYK2): 27.3%; % change of MS signal compared to control sample (KSR1, KSR2): −8.9%; % change of MS signal compared to control sample (MAP3K2, MAP3K3): 24.8%; % change of MS signal compared to control sample (MARK2, MARK3): −31.5%; % change of MS signal compared to control sample (p70S6Kb): −72.4%; % change of MS signal compared to control sample (ITPK1): 12.8%; % change of MS signal compared to control sample (TLK2): 8.7%; % change of MS signal compared to control sample (PCTAIRE1, PCTAIRE3): 12.7%; % change of MS signal compared to control sample (PCTAIRE2, PCTAIRE3): 27.9%; % change of MS signal compared to control sample (PCTAIRE1): 19.0%; % change of MS signal compared to control sample (PRP4): 6.9%; % change of MS signal compared to control sample (PRPK): −13.6%; % change of MS signal compared to control sample (PCTAIRE2): 13.4%; % change of MS signal compared to control sample (MAPKAPK3): 7.0%
C=CC(=O)N1CCC(Cn2ccc(Nc3ncc(C(=O)Nc4c(C)cccc4Cl)s3)n2)C1 (centres unmarked) [II-1] | 29.4 | 22.3 | 7.2% and 13.7% | −4.7 | −19.8 | −29.5 | 15.4 | −35.0 | 25.6 | 14.7 | 76.1% and 39.5% | −14.2 | 26.3 | 5.1 | −17.9 | 91.0 | 13.7 | −1.2 | −64.9 | 2.4 | % change of MS signal compared to control sample [1]: 4.2%; % change of MS signal compared to control sample (GSK3A): −11.8%; % change of MS signal compared to control sample (MARK3, MARK4): 17.4%; % change of MS signal compared to control sample (eEF2K): −3.8%; % change of MS signal compared to control sample (KSR1, KSR2): −8.7%; % change of MS signal compared to control sample (MAP3K2, MAP3K3): 17.1%; % change of MS signal compared to control sample (MARK2, MARK3): −10.1%; % change of MS signal compared to control sample (p70S6Kb): −57.1%; % change of MS signal compared to control sample (ITPK1): 14.0%; % change of MS signal compared to control sample (TLK2): 7.3%; % change of MS signal compared to control sample (PCTAIRE1, PCTAIRE3): 11.4%; % change of MS signal compared to control sample (PCTAIRE2, PCTAIRE3): 31.8%; % change of MS signal compared to control sample (PCTAIRE1): 38.4%; % change of MS signal compared to control sample (PRP4): 6.9%; % change of MS signal compared to control sample (PRPK): −5.2%; % change of MS signal compared to control sample (PCTAIRE2): 7.7%; % change of MS signal compared to control sample (MAPKAPK3): 6.2%
